Like-named read-outs stand apart in the source and are kept apart here.
Columns and labels:
[1] = biological target: T1, SUMO E1 (Homo sapiens, UniProt Q9UBT2); assay: SUMO E1 inhibition: UBC9-SUMO1 conjugation by SDS gel electrophoresis; format: biochemical; details: read-out: SUMO E1 percent inhibition of adduct formation; for inhibition at 10 µM: 10 uM compound; for inhibition at 25 µM: 25 uM compound; for inhibition at 27 µM: 27 uM compound; for inhibition at 9 µM: 9 uM compound; for inhibition at 3 µM: 3 uM compound
T1 sequence (Q9UBT2 1-640): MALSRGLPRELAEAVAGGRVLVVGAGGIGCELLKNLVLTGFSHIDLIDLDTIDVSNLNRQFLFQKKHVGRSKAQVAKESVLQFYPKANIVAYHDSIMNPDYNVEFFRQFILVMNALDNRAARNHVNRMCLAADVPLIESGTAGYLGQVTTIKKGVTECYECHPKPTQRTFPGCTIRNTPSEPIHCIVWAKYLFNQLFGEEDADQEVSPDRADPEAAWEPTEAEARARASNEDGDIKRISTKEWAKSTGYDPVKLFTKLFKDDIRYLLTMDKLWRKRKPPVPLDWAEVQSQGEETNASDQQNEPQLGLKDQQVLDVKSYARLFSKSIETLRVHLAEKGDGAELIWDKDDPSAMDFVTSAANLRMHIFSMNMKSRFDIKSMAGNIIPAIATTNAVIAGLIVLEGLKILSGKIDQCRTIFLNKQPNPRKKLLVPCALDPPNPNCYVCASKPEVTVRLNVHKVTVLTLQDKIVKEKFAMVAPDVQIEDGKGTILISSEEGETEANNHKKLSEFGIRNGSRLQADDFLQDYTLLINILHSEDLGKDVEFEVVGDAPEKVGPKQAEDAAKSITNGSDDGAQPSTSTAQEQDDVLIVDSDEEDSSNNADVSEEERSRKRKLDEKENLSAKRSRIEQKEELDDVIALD
T1 sequence (Q9UBE0 1-346 partner): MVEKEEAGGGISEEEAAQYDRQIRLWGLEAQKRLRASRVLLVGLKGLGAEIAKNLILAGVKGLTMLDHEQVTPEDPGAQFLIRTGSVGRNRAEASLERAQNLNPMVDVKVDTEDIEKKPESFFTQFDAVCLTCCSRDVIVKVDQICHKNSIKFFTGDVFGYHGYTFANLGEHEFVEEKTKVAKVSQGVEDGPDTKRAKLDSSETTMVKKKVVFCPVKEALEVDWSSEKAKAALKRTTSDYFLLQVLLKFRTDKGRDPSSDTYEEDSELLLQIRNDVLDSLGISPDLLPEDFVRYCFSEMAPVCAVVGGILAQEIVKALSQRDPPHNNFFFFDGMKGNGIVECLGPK
Procedure: (§1) Compounds are evaluated for their inhibitory effect on activating enzymes (E1) of ubiquitin, SUMO, Nedd8, Urm1, ISG15 or Atg7 using previously reported methods and protocols. One example is in: Allosteric inhibition of ubiquitin-like modifications by a class of inhibitor of SUMO-activating enzyme. Cell Chemical Biology, 26, 1-11, 2019. PMID: 28051857.
(§2) Compounds are tested in the following manner. The compound and SUMO E1 are incubated for a predetermined amount of time. UBC9, SUMO1, and ATP are added to the E1-compound mixture and incubated at 37° C. The reaction is quenched with Laemmli Buffer. The UBC9-SUMO1 conjugation is analyzed via SDS gel electrophoresis. The percent inhibition is measured by the intensity of the UBC9-SUMO1 band compared to the no compound control. Activities are listed as compound concentration (uM), preincubation time of E1 with compound (min), and percent inhibition of adduct formation (%). […]

[2] = biological target: T2, Atg7 (Homo sapiens, UniProt O95352); assay: Atg7 activating enzyme (E1) inhibition; format: biochemical; details: 25 uM compound, 60 min preincubation; read-out: Atg7 percent inhibition of adduct formation
T2 sequence (O95352 1-703): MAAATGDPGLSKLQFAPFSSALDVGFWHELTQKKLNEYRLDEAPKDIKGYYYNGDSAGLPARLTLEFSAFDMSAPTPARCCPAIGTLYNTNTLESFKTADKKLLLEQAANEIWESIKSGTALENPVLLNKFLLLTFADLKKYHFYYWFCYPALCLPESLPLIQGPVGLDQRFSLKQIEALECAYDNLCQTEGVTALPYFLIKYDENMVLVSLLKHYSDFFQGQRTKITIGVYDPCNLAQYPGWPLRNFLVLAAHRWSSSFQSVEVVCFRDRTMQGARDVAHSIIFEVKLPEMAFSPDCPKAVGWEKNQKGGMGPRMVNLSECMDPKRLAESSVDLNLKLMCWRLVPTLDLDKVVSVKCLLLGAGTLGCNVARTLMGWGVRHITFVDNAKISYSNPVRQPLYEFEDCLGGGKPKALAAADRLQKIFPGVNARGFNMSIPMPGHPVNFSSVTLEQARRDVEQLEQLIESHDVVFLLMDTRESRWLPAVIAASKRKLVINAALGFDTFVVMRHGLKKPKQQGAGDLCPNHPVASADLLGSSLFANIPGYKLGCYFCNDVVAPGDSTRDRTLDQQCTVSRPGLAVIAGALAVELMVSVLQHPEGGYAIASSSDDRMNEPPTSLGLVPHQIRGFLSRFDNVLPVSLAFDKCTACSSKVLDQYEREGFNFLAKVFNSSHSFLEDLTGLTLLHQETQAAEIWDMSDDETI
Procedure: as §1, §2

| SMILES | inhibition at 25 µM [2] [%] | further results |
| --- | --- | --- |
| C=CC(=O)N1Cc2oc(C)cc2[C@@H](c2ccccc2)C1 [Compound 83] | < 1 | inhibition at 10 µM ([1]; 30 min preincubation): < 1% |
| C=CC(=O)N1Cc2c(C)cc(Br)cc2[C@@H](c2ccccc2)C1 [Compound 47] | < 1 | inhibition at 25 µM ([1]; 60 min preincubation): < 1% |
| C=CC(=O)N1Cc2cc(Cl)sc2[C@@H](c2ccccc2C)C1 [Compound 127] | < 1 | inhibition at 27 µM ([1]; 20 min preincubation): 95% |
| C=CC(=O)N1Cc2sc(Br)cc2[C@@H](c2ccccc2C)C1 [Compound 72] | < 1 | inhibition at 10 µM ([1]; 60 min preincubation): 100% |
| C=CC(=O)N1Cc2cc(Cl)ccc2[C@@H](c2ccccc2)C1 [Compound 64] | < 1 | inhibition at 10 µM ([1]; 60 min preincubation): 100% |
| C=CC(=O)N1CCc2cc(Nc3ccccc3)ccc2C1 [Compound 8] | < 1 | inhibition at 25 µM ([1]; 60 min preincubation): < 1% |
| C=CC(=O)N1CCc2sc(Cl)cc2[C@@H](c2ccccc2)C1 [Compound 142] | < 1 | inhibition at 9 µM ([1]; 30 min preincubation): 80% |
| C=CC(=O)N1CCc2cccc(Br)c2C1 [Compound 21] | < 1 | inhibition at 25 µM ([1]; 60 min preincubation): < 1% |
| C=CC(=O)N1Cc2sc(Cl)cc2[C@@H](c2ccccc2)C1 [Compound 73] | < 1 | inhibition at 10 µM ([1]; 60 min preincubation): 100% |
| C=CC(=O)N1Cc2sc(Cl)cc2[C@@H](c2ccccc2OCCN(C)C)C1 [Compound 151] | < 1 | inhibition at 6 µM ([1]; 6 uM compound, 15 min preincubation): < 1% |
| C=CC(=O)N1Cc2cc(Br)ccc2[C@@H](c2ccccc2)C1 [Compound 61] | < 1 | inhibition at 10 µM ([1]; 60 min preincubation): 100% |
| Cc1ccccc1[C@H]1CN(C(=O)c2cccnc2Cl)Cc2sc(Cl)cc21 [Compound 118] | < 1 | inhibition at 27 µM ([1]; 30 min preincubation): < 1% |
| C=CC(=O)N1Cc2sc(Cl)cc2[C@@H](C2=CN(C)CC=C2)C1 [Compound 145] | < 1 | inhibition at 9 µM ([1]; 30 min preincubation): < 1% |
| C=CC(=O)N1Cc2ccccc2[C@@H](c2c(F)cccc2F)C1 [Compound 43] | < 1 | inhibition at 25 µM ([1]; 60 min preincubation): < 1% |
| C=CC(=O)N1Cc2cc(Cl)c(Cl)cc2[C@@H](c2ncccc2C)C1 [Compound 98] | < 1 | inhibition at 9 µM ([1]; 30 min preincubation): < 1% |
| Cc1ccccc1[C@H]1CN(C(=O)/C=C/c2ccc(C#N)cc2)Cc2sc(Cl)cc21 [Compound 121] | < 1 | inhibition at 27 µM ([1]; 30 min preincubation): < 1% |
| C=CC(=O)N1CCc2c(Br)cccc2C1 [Compound 1] | < 1 | inhibition at 25 µM ([1]; 55 min preincubation of E1 with compound): 50% |
| C=CC(=O)N1Cc2cc(OCC(C)C)ccc2[C@@H](c2ccccc2)C1 [Compound 48] | < 1 | inhibition at 25 µM ([1]; 60 min preincubation): 30% |
| C/C=C/C(=O)N1Cc2sc(Cl)cc2[C@@H](c2ccccc2C)C1 [Compound 97] | < 1 | inhibition at 9 µM ([1]; 30 min preincubation): < 1% |
| C=CC(=O)N1Cc2sc(Cl)c(F)c2[C@@H](c2ccccc2C)C1 [Compound 150] | < 1 | inhibition at 22 µM ([1]; 22 uM compound, 30 min preincubation): 50% |
| C=CC(=O)N1Cc2sc(-c3ccccc3)cc2[C@@H](c2ccccc2)C1 [Compound 103] | < 1 | inhibition at 27 µM ([1]; 30 min preincubation): < 1% |

| SMILES | inhibition at 25 µM [2] [%] | further results |
| --- | --- | --- |
| C=CC(=O)N1Cc2ccc(Cl)cc2[C@@H](c2ccccc2)C1 [Compound 63] | < 1 | inhibition at 10 µM ([1]; 60 min preincubation): 50% |
| C=CC(=O)N1Cc2cccc(Br)c2[C@@H](c2ccccc2)C1 [Compound 62] | < 1 | inhibition at 25 µM ([1]; 60 min preincubation): 5% |
| C=CC(=O)N1Cc2cccc(Cl)c2[C@@H](c2ccccc2C)C1 [Compound 76] | < 1 | inhibition at 25 µM ([1]; 60 min preincubation): < 1% |
| C=CC(=O)N1Cc2sc(Cl)cc2[C@@H](c2ccccc2-c2ccncc2)C1 [Compound 136] | < 1 | inhibition at 3 µM ([1]; 30 min preincubation): 100% |
| C=CC(=O)N1Cc2ccccc2[C@@H](c2cccc(O)c2)C1 [Compound 45] | < 1 | inhibition at 25 µM ([1]; 60 min preincubation): < 1% |
| C=CC(=O)N1Cc2sc(C)cc2[C@@H](c2ccccc2C)C1 [Compound 89] | < 1 | inhibition at 9 µM ([1]; 30 min preincubation): 95% |
| C=CC(=O)N1CCc2ncncc2C1 [Compound 5] | < 1 | inhibition at 25 µM ([1]; 30 min preincubation): 10% |
| Cc1ccccc1[C@H]1CN(C(=O)CBr)Cc2sc(Cl)cc21 [Compound 107] | 100 | inhibition at 9 µM ([1]; 30 min preincubation): 100% |
| C=CC(=O)N1CCc2cc(Br)ccc21 [Compound 4] | < 1 | inhibition at 25 µM ([1]; 30 min preincubation): 10% |
| C=CC(=O)N1CCc2cc(Cc3ccc(OC)cc3)ccc2C1 [Compound 23] | < 1 | inhibition at 25 µM ([1]; 60 min preincubation): < 1% |
| C=C(C)C(=O)N1Cc2sc(Cl)cc2[C@@H](c2ccccc2C)C1 [Compound 106] | < 1 | inhibition at 27 µM ([1]; 30 min preincubation): < 1% |
| C=CC(=O)N1Cc2cc(Cl)c(Cl)cc2[C@@H](c2ccccc2)C1 [Compound 100] | < 1 | inhibition at 3 µM ([1]; 15 min preincubation): 30% |
| C=CC(=O)N1Cc2ccsc2[C@@H](c2ccccc2)C1 [Compound 116] | < 1 | inhibition at 27 µM ([1]; 30 min preincubation): < 1% |
| C=CC(=O)N[C@H]1Cc2ccsc2[C@@H](c2ccccc2C)C1 [Compound 117] | < 1 | inhibition at 27 µM ([1]; 30 min preincubation): < 1% |
| C=CC(=O)N1Cc2sc(Cl)cc2[C@@H]([C@H]2CCCN(C)C2)C1 [Compound 147] | < 1 | inhibition at 9 µM ([1]; 30 min preincubation): < 1% |
| Cc1ccccc1[C@H]1CN(C(=O)[C@@H]2CO2)Cc2sc(Cl)cc21 [Compound 105] | < 1 | inhibition at 27 µM ([1]; 30 min preincubation): < 1% |
| C=CC(=O)N1Cc2sc(Cl)cc2[C@@H](c2ccccc2-c2ccccc2)C1 [Compound 133] | < 1 | inhibition at 1 µM ([1]; 1 uM compound, 30 min preincubation): 95% |
| C=CC(=O)N1Cc2ccc(Br)cc2[C@@H](c2ccccc2)C1 [Compound 29] | < 1 | inhibition at 25 µM ([1]; 60 min preincubation): 90% |
| C=CC(=O)N1C[C@H](c2ccccc2)c2cc(Br)ccc2C1(C)C [Compound 67] | < 1 | inhibition at 25 µM ([1]; 60 min preincubation): < 1% |
| C=CC(=O)N1Cc2cc(Cl)ccc2[C@@H](c2ccncc2)C1 [Compound 92] | < 1 | inhibition at 20 µM ([1]; 20 uM compound, 60 min preincubation): 10% |
